From PubChem BioAssay (NCI) come the findings set out here.

Some test systems named below: 786-0 renal; ACHN renal; MOLT-4 leukemia; OVCAR-4 ovarian; SF-268 CNS; SK-MEL-2 melanoma; SK-MEL-5 melanoma; SNB-75 CNS; UACC-62 melanoma.
Holding throughout (assay): DTP human tumour cell line panel, 48 h

The structures appear in SMILES notation.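 These data come from cells grown in 96-well plates and exposed to compound for 48 hours at five concentrations. Here, GI50 denotes the concentration required for 50% inhibition of growth. Definition used: TGI = concentration required for complete inhibition of growth.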

As to `CSc1snc2sc3c(Cl)nnnc3c12`, the TGI in the assay on 786-0 renal amounted to 29.7 µM; with ACHN renal, 23.3 µM; with MOLT-4 leukemia it was 11.4 µM; in the assay with OVCAR-4 ovarian it was 29.5 µM; with SF-268 CNS, 33.2 µM; with SK-MEL-2 melanoma it was 27.7 µM. The TGI in the assay with SK-MEL-5 melanoma amounted to 30.7 µM; with SNB-75 CNS, 23.7 µM; in the assay with UACC-62 melanoma, 29.2 µM.
On to `COc1ccc2oc(C(=O)O)c3c2c1CCC3CCC(=O)O` (stereo not given), for which the concentration for total growth inhibition (TGI) in the assay on 786-0 renal, with ACHN renal, with MOLT-4 leukemia, in the assay on OVCAR-4 ovarian, in the assay on SF-268 CNS and in the assay on SK-MEL-2 melanoma was above 100 µM each time. In addition, the TGI in the assay on SK-MEL-5 melanoma, with SNB-75 CNS and with UACC-62 melanoma was above 100 µM each time.
Take `CCCCCCCCCC(=O)OCC1OC(n2cc(F)c(=O)[nH]c2=O)C(NC(=O)OCc2ccccc2)C(OC(=O)CCCCCCCCC)C1O` (stereo not given): the concentration for total growth inhibition (TGI) in the assay with 786-0 renal is 36.1 µM; in the assay with ACHN renal, above 100 µM; in the assay on MOLT-4 leukemia it was above 100 µM; with OVCAR-4 ovarian it was 40.6 µM; in the assay with SF-268 CNS, above 100 µM; with SK-MEL-2 melanoma it was above 100 µM. Also, the TGI in the assay on SK-MEL-5 melanoma is 41.5 µM; in the assay with SNB-75 CNS it was above 100 µM; in the assay on UACC-62 melanoma, above 100 µM.
`COc1ccc(/C=C2\CCC(CCN(C)C)(C3=CCCC3)C2=O)cc1Br` (stereo not given): the TGI with 786-0 renal stood at 14.3 µM; in the assay on ACHN renal, 21.5 µM; in the assay on MOLT-4 leukemia it was 6.01 µM; in the assay with OVCAR-4 ovarian, 14.5 µM; in the assay with SF-268 CNS it was 23 µM; with SK-MEL-2 melanoma, 22.2 µM. Also, the total growth inhibition concentration (TGI) in the assay with SK-MEL-5 melanoma stood at 3.15 µM; in the assay with SNB-75 CNS, 17.5 µM.
For the compound `Nc1ccc(-c2cccs2)cc1NC(=O)c1ccc(CCCC(=O)Nc2ccc(C3CC3N)cc2)cc1` (stereo not given), the GI50 with 786-0 renal was 1.61 µM; in the assay on OVCAR-4 ovarian, 1.52 µM; in the assay with SF-268 CNS, 2.33 µM; in the assay with SK-MEL-2 melanoma it was 7.28 µM; with SK-MEL-5 melanoma, 1.91 µM; in the assay with SNB-75 CNS, 1.65 µM. In addition, the GI50 in the assay on UACC-62 melanoma is 1.28 µM. The concentration for total growth inhibition (TGI) is 3.37 µM in the assay on 786-0 renal; 3.3 µM with OVCAR-4 ovarian; 5.47 µM with SF-268 CNS; above 100 µM in the assay with SK-MEL-2 melanoma; 6.23 µM in the assay with SK-MEL-5 melanoma; 4.27 µM in the assay with SNB-75 CNS. This compound had a TGI in the assay on UACC-62 melanoma of 5.47 µM.
As for `C=C1CC2CC(O)CC(C1)C2` (stereo not given), the concentration for total growth inhibition (TGI) in the assay on 786-0 renal, with ACHN renal, in the assay with MOLT-4 leukemia, with OVCAR-4 ovarian, in the assay with SF-268 CNS and with SK-MEL-2 melanoma was above 100 µM throughout. Besides, the total growth inhibition concentration (TGI) with SK-MEL-5 melanoma, with SNB-75 CNS and in the assay on UACC-62 melanoma was above 100 µM throughout.
For `Cc1ccc(C(=O)/C=C/c2cccc([N+](=O)[O-])c2)cc1`, the total growth inhibition concentration (TGI) in the assay with 786-0 renal is above 62.9 µM; in the assay with ACHN renal it was above 100 µM; in the assay on MOLT-4 leukemia, 7.39 µM; in the assay with OVCAR-4 ovarian, above 100 µM; in the assay with SF-268 CNS it was above 100 µM; with SK-MEL-2 melanoma, above 100 µM. Further, the total growth inhibition concentration (TGI) in the assay on SK-MEL-5 melanoma is above 100 µM; with SNB-75 CNS, above 92.9 µM; in the assay on UACC-62 melanoma it was above 100 µM.
For the compound `CCCCNC(=O)C1C2CCC(O2)C1C(=O)O` (stereo not given), the TGI in the assay with 786-0 renal is 31.5 µM; in the assay with ACHN renal, 57.7 µM; with MOLT-4 leukemia, 40.4 µM; in the assay on OVCAR-4 ovarian, above 100 µM; with SF-268 CNS, 45.1 µM; with SK-MEL-2 melanoma, 54.8 µM. Also, the TGI was found to be 45.8 µM in the assay on SK-MEL-5 melanoma, 52.1 µM with SNB-75 CNS and 43.4 µM in the assay on UACC-62 melanoma.
Consider `CC(=O)O[C@@]1(C)[C@@H](C)C(=O)O[C@@H]2CCN3CC=C(COC(=O)[C@]1(C)O)[C@H]23`, for which the TGI in the assay with 786-0 renal, in the assay on ACHN renal, in the assay with MOLT-4 leukemia, in the assay with OVCAR-4 ovarian, in the assay with SF-268 CNS and with SK-MEL-2 melanoma was above 100 µM in each case. The TGI in the assay on SK-MEL-5 melanoma, in the assay with SNB-75 CNS and in the assay on UACC-62 melanoma was above 100 µM each time.
`O=C(N/N=C1\C(=O)N(c2nccs2)C(=O)C(=O)C1c1nc2ccccc2s1)c1ccccc1O` (stereo not given): the total growth inhibition concentration (TGI) in the assay with 786-0 renal, with ACHN renal, in the assay on OVCAR-4 ovarian, with SF-268 CNS, with SK-MEL-2 melanoma and in the assay on SK-MEL-5 melanoma was above 100 µM throughout. The TGI in the assay on SNB-75 CNS and in the assay with UACC-62 melanoma was above 100 µM throughout.
For `C/C=C(\CCOS(=O)(=O)c1ccc(C)cc1)[Si](C)(C)C`, the TGI in the assay on 786-0 renal, with ACHN renal, in the assay with MOLT-4 leukemia, with SF-268 CNS, with SK-MEL-2 melanoma and with SK-MEL-5 melanoma was above 100 µM each time. For the same compound, the total growth inhibition concentration (TGI) in the assay on SNB-75 CNS and in the assay on UACC-62 melanoma was above 100 µM each time.
Regarding `CCc1cc(CCC(=O)Nc2ccccc2[N+](=O)[O-])[nH]c(=S)n1`, the TGI in the assay with 786-0 renal, in the assay with ACHN renal, in the assay with MOLT-4 leukemia, with SF-268 CNS, in the assay with SK-MEL-2 melanoma and with UACC-62 melanoma was above 100 µM each time.
Take `Cc1cccc2c1CCC21OC(=O)c2c1ccc1ccccc21` (stereo not given): the concentration for total growth inhibition (TGI) in the assay with 786-0 renal was above 100 µM; with ACHN renal, above 100 µM; with MOLT-4 leukemia, 79.8 µM; in the assay on OVCAR-4 ovarian it was above 100 µM; in the assay with SF-268 CNS, above 100 µM; in the assay with SK-MEL-2 melanoma, 62.3 µM. For the same compound, the concentration for total growth inhibition (TGI) was 46 µM in the assay with SK-MEL-5 melanoma, above 100 µM in the assay on SNB-75 CNS and above 100 µM with UACC-62 melanoma.
As to `Nc1n[n+](-c2ccccc2)no1`, the TGI with 786-0 renal, with ACHN renal, in the assay with MOLT-4 leukemia, with OVCAR-4 ovarian, with SF-268 CNS and in the assay with SK-MEL-5 melanoma was above 100 µM throughout. In the assay on UACC-62 melanoma, this compound showed a concentration for total growth inhibition (TGI) of 89.6 µM.
`O=C(CC(=O)c1cccc2ccccc12)C(=O)NC1C2CC3CC(C2)CC1C3` (stereo not given): the total growth inhibition concentration (TGI) in the assay with 786-0 renal, in the assay with ACHN renal, in the assay with MOLT-4 leukemia, with OVCAR-4 ovarian, in the assay on SF-268 CNS and with SK-MEL-5 melanoma was above 100 µM throughout. In the assay on UACC-62 melanoma, this compound gave a TGI above 100 µM.
Regarding `C=C1C(OC(=O)/C=C/c2ccccc2)CC(OC(C)=O)C2(C)C1CC1CC(OC(C)=O)C(C)=C(C(OC(C)=O)C2OC(C)=O)C1(C)C` (stereo not given), the TGI with 786-0 renal, in the assay on MOLT-4 leukemia, with SF-268 CNS, in the assay with SK-MEL-5 melanoma, with SNB-75 CNS and with UACC-62 melanoma was above 100 µM in each case.
Turning to `O=C(O/N=C1/CCC/C1=C\c1ccccc1)c1ccc(Cl)c(Cl)c1`, the TGI in the assay with 786-0 renal, in the assay with ACHN renal, in the assay with MOLT-4 leukemia, with OVCAR-4 ovarian, in the assay on SF-268 CNS and in the assay on SK-MEL-2 melanoma was above 100 µM throughout. For the same compound, the total growth inhibition concentration (TGI) in the assay with SK-MEL-5 melanoma, in the assay with SNB-75 CNS and in the assay on UACC-62 melanoma was above 100 µM throughout.
On to `O=C1C2C(C(=O)N1c1ccccc1)C1([N+](=O)[O-])C=C3c4ccccc4N(C(=O)c4ccccc4)C32C2C(=O)N(c3ccccc3)C(=O)C21` (stereo not given), for which the TGI with 786-0 renal, with ACHN renal, with MOLT-4 leukemia, in the assay on SF-268 CNS, with SK-MEL-2 melanoma and in the assay with SNB-75 CNS was above 100 µM each time. In addition, in the assay with UACC-62 melanoma, the TGI was above 100 µM.
Consider `CC(C)(C)c1ccc(OCCOCCOc2ccc(C(C)(C)C)cc2S(=O)(=O)Nc2ccc([N+](=O)[O-])cc2)c(S(=O)(=O)Nc2ccc([N+](=O)[O-])cc2)c1`, for which the TGI was above 100 µM in the assay on 786-0 renal; above 100 µM in the assay on ACHN renal; 43.9 µM in the assay with MOLT-4 leukemia; above 100 µM in the assay with OVCAR-4 ovarian; above 100 µM with SF-268 CNS; above 100 µM in the assay with SK-MEL-2 melanoma. The total growth inhibition concentration (TGI) in the assay on SK-MEL-5 melanoma, in the assay on SNB-75 CNS and in the assay with UACC-62 melanoma was above 100 µM each time.
`NC1=NN(c2ccccc2)C(=O)C1C(=O)C(=O)Nc1nccs1` (stereo not given): the TGI in the assay on 786-0 renal, with ACHN renal, with MOLT-4 leukemia, in the assay with OVCAR-4 ovarian, in the assay with SF-268 CNS and with SK-MEL-2 melanoma was above 100 µM in each case. Also, the concentration for total growth inhibition (TGI) with SK-MEL-5 melanoma, with SNB-75 CNS and with UACC-62 melanoma was above 100 µM in each case.
For `COc1ccc2c3c(c(C(=O)c4ccccc4)oc13)CCC2`, the TGI in the assay on 786-0 renal, in the assay with ACHN renal, in the assay on MOLT-4 leukemia, with OVCAR-4 ovarian, in the assay on SK-MEL-5 melanoma and with SNB-75 CNS was above 100 µM each time. Also, the TGI in the assay with UACC-62 melanoma is above 100 µM.
As for `CCOC(=O)c1cnc2c(ccc3ncccc32)c1NCCCN(CC)CC`, the total growth inhibition concentration (TGI) with 786-0 renal is above 100 µM; in the assay with ACHN renal it was above 100 µM; in the assay on MOLT-4 leukemia it was 72.2 µM; in the assay on OVCAR-4 ovarian, above 100 µM; in the assay on SF-268 CNS, above 100 µM; with SK-MEL-2 melanoma it was above 100 µM. Besides, the TGI in the assay on SK-MEL-5 melanoma and in the assay with UACC-62 melanoma was above 100 µM each time.
